Measured values from ChEMBL document CHEMBL1201862, “PubChem BioAssay data set” (2004).
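1) Cells in 96-well plates. 2) Compound, 48 h, 5 concentrations. 3) Linear interpolation between surrounding doses. 4) Unreached endpoint = highest concentration. At the GI50, growth is halved.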 The source made the active and inactive calls. No stated cut-off is given here; in the data, active = GI50 up to about 1.1 µM and inactive = higher.

Tests used:
Test in all cases: NCI tumour cell line growth inhibition, 48 h
A498 = system: A498
U-251 = system: U-251
HCC 2998 = system: HCC 2998
A549 = system: A549
Malme-3M = system: Malme-3M
HL-60 = system: HL-60
NCI-H522 = system: NCI-H522
K562 = system: K562
COLO 205 = system: COLO 205
NCI/ADR-RES = system: NCI/ADR-RES
DU-145 = system: DU-145
EKVX = system: EKVX
UACC-257 = system: UACC-257
HOP-62 = system: HOP-62
PC-3 = system: PC-3
OVCAR-3 = system: OVCAR-3
Hs-578T = system: Hs-578T
ACHN = system: ACHN
SK-MEL-2 = system: SK-MEL-2
SK-MEL-28 = system: SK-MEL-28
TK-10 = system: TK-10
RPMI-8226 = system: RPMI-8226
SF-539 = system: SF-539
SW-620 = system: SW-620
CCRF-CEM = system: CCRF-CEM
KM12 = system: KM12
SR = system: SR
NCI-H460 = system: NCI-H460
IGROV-1 = system: IGROV-1
OVCAR-8 = system: OVCAR-8
NCI-H226 = system: NCI-H226
SK-OV-3 = system: SK-OV-3
MOLT-4 = system: MOLT-4
UACC-62 = system: UACC-62
BT-549 = system: BT-549
OVCAR-5 = system: OVCAR-5
786-0 = system: 786-0
SK-MEL-5 = system: SK-MEL-5
M14 = system: M14
T47D = system: T47D
MDA-N = system: MDA-N
MDA-MB-435 = system: MDA-MB-435
SN12C = system: SN12C
RXF 393 = system: RXF 393
NCI-H23 = system: NCI-H23
OVCAR-4 = system: OVCAR-4
SF-295 = system: SF-295
MCF7 = system: MCF7
SNB-19 = system: SNB-19
HT-29 = system: HT-29
MDA-MB-231 = system: MDA-MB-231
HCT-15 = system: HCT-15
UO-31 = system: UO-31
HCT-116 = system: HCT-116
HOP-92 = system: HOP-92
SNB-75 = system: SNB-75
SF-268 = system: SF-268
CAKI-1 = system: CAKI-1

SMILES: CC(=O)Nc1cc(Cl)cc(Cl)c1O
- GI50 (A498): > 100 µM (inactive)
- GI50 (U-251): > 100 µM (inactive)
- GI50 (HCC 2998): > 100 µM (inactive)
- GI50 (A549): > 100 µM (inactive)
- GI50 (Malme-3M): > 100 µM (inactive)
- GI50 (HL-60): > 100 µM (inactive)
- GI50 (NCI-H522): > 100 µM (inactive)
- GI50 (K562): > 100 µM (inactive)
- GI50 (COLO 205): > 100 µM (inactive)
- GI50 (NCI/ADR-RES): > 100 µM (inactive)
- GI50 (DU-145): > 100 µM (inactive)
- GI50 (EKVX): > 100 µM (inactive)
- GI50 (UACC-257): > 100 µM (inactive)
- GI50 (HOP-62): > 100 µM (inactive)
- GI50 (PC-3): > 100 µM (inactive)
- GI50 (OVCAR-3): > 100 µM (inactive)
- GI50 (Hs-578T): > 100 µM (inactive)
- GI50 (ACHN): > 100 µM (inactive)
- GI50 (SK-MEL-2): > 100 µM (inactive)
- GI50 (SK-MEL-28): > 100 µM (inactive)
- GI50 (TK-10): > 100 µM (inactive)
- GI50 (RPMI-8226): > 100 µM (inactive)
- GI50 (SF-539): > 100 µM (inactive)
- GI50 (SW-620): > 100 µM (inactive)
- GI50 (CCRF-CEM): > 100 µM (inactive)
- GI50 (KM12): > 100 µM (inactive)
- GI50 (SR): > 100 µM (inactive)
- GI50 (NCI-H460): > 100 µM (inactive)
- GI50 (IGROV-1): > 100 µM (inactive)
- GI50 (OVCAR-8): > 100 µM (inactive)
- GI50 (NCI-H226): > 100 µM (inactive)
- GI50 (SK-OV-3): > 100 µM (inactive)
- GI50 (MOLT-4): > 100 µM (inactive)
- GI50 (UACC-62): > 100 µM (inactive)
- GI50 (BT-549): > 100 µM (inactive)
- GI50 (OVCAR-5): > 100 µM (inactive)
- GI50 (786-0): > 100 µM (inactive)
- GI50 (SK-MEL-5): > 100 µM (inactive)
- GI50 (M14): > 100 µM (inactive)
- GI50 (T47D): > 100 µM (inactive)
- GI50 (MDA-N): > 100 µM (inactive)
- GI50 (MDA-MB-435): > 100 µM (inactive)
- GI50 (SN12C): > 100 µM (inactive)
- GI50 (RXF 393): > 100 µM (inactive)
- GI50 (NCI-H23): > 100 µM (inactive)
- GI50 (OVCAR-4): > 100 µM (inactive)
- GI50 (SF-295): > 100 µM (inactive)
- GI50 (MCF7): > 100 µM (inactive)
- GI50 (SNB-19): > 100 µM (inactive)
- GI50 (HT-29): > 100 µM (inactive)
- GI50 (MDA-MB-231): > 100 µM (inactive)
- GI50 (HCT-15): > 100 µM
- GI50 (UO-31): > 100 µM (inactive)
- GI50 (HCT-116): > 100 µM (inactive)
- GI50 (HOP-92): > 100 µM (inactive)
- GI50 (SNB-75): 97.1 µM (inactive)
- GI50 (SF-268): > 100 µM (inactive)
- GI50 (CAKI-1): > 100 µM (inactive)

SMILES: O=S(=O)(O)c1cc(S(=O)(=O)O)c2c(/N=N/c3ccc(/N=N/c4ccccc4)cc3)c(O)ccc2c1
- GI50 (A498): 52.1 µM (inactive)
- GI50 (U-251): > 100 µM (inactive)
- GI50 (HCC 2998): > 100 µM (inactive)
- GI50 (A549): > 100 µM (inactive)
- GI50 (Malme-3M): > 100 µM (inactive)
- GI50 (HL-60): > 100 µM (inactive)
- GI50 (NCI-H522): > 100 µM (inactive)
- GI50 (K562): > 100 µM (inactive)
- GI50 (COLO 205): > 100 µM (inactive)
- GI50 (NCI/ADR-RES): > 100 µM (inactive)
- GI50 (DU-145): > 100 µM (inactive)
- GI50 (EKVX): > 100 µM (inactive)
- GI50 (UACC-257): > 100 µM (inactive)
- GI50 (HOP-62): > 100 µM (inactive)
- GI50 (PC-3): > 100 µM (inactive)
- GI50 (OVCAR-3): > 100 µM (inactive)
- GI50 (Hs-578T): > 100 µM (inactive)
- GI50 (ACHN): > 100 µM (inactive)
- GI50 (SK-MEL-2): > 100 µM (inactive)
- GI50 (SK-MEL-28): > 100 µM (inactive)
- GI50 (TK-10): > 100 µM (inactive)
- GI50 (RPMI-8226): > 100 µM (inactive)
- GI50 (SF-539): > 100 µM (inactive)
- GI50 (SW-620): > 100 µM (inactive)
- GI50 (CCRF-CEM): > 100 µM (inactive)
- GI50 (KM12): > 100 µM (inactive)
- GI50 (SR): > 100 µM (inactive)
- GI50 (NCI-H460): > 100 µM (inactive)
- GI50 (IGROV-1): > 100 µM (inactive)
- GI50 (OVCAR-8): > 100 µM (inactive)
- GI50 (NCI-H226): > 100 µM (inactive)
- GI50 (SK-OV-3): > 100 µM (inactive)
- GI50 (MOLT-4): > 100 µM (inactive)
- GI50 (UACC-62): > 100 µM (inactive)
- GI50 (BT-549): > 100 µM (inactive)
- GI50 (OVCAR-5): > 100 µM (inactive)
- GI50 (786-0): > 100 µM (inactive)
- GI50 (SK-MEL-5): > 100 µM (inactive)
- GI50 (M14): > 100 µM (inactive)
- GI50 (T47D): > 100 µM (inactive)
- GI50 (MDA-N): > 100 µM (inactive)
- GI50 (MDA-MB-435): > 100 µM (inactive)
- GI50 (SN12C): > 100 µM (inactive)
- GI50 (RXF 393): > 100 µM (inactive)
- GI50 (NCI-H23): > 100 µM (inactive)
- GI50 (OVCAR-4): > 100 µM (inactive)
- GI50 (SF-295): > 100 µM (inactive)
- GI50 (MCF7): > 100 µM (inactive)
- GI50 (SNB-19): > 100 µM (inactive)
- GI50 (HT-29): > 100 µM (inactive)
- GI50 (MDA-MB-231): > 100 µM (inactive)
- GI50 (HCT-15): > 100 µM
- GI50 (UO-31): > 100 µM (inactive)
- GI50 (HCT-116): > 100 µM (inactive)
- GI50 (HOP-92): > 100 µM (inactive)
- GI50 (SNB-75): > 100 µM (inactive)
- GI50 (SF-268): > 100 µM (inactive)
- GI50 (CAKI-1): > 100 µM (inactive)
